Laboratory results published in US12661335B2, “Halogenated xanthene-containing topical anti-gram-positive bacterial ophthalmic composition and method” (Provectus Pharmatech, Inc., priority 2021, dated 2026).
In brackets after ≈: the same amount, converted by molar mass.

Tests used:
[1] = system: Bacillus cereus NRRL B-569; experiment: MIC, broth dilution method, dark condition; type: cell-based; conditions: NRRLB569, Table 1 entry 2, 24 h
[2] = system: Staphylococcus aureus 6538 ™; experiment: MIC, broth dilution method, dark condition; type: cell-based; conditions: Table 1 entry 4, 24 h
[3] = system: Staphylococcus aureus subsp. Aureus BAA-1683 (a MRSA strain); experiment: MIC, broth dilution method, dark condition; type: cell-based; conditions: Table 1 entry 5, 24 h
[4] = system: Staphylococcus aureus subsp. Aureus BAA-42 ™ (a MRSA strain); experiment: MIC, broth dilution method, dark condition; type: cell-based; conditions: Table 1 entry 7, 24 h
[5] = system: Staphylococcus aureus subsp. Aureus BAA-2094 ™ (a MRSA strain); experiment: MIC, broth dilution method, dark condition; type: cell-based; conditions: Table 1 entry 9, 24 h
[6] = system: Staphylococcus aureus BAA-2313 ™ (a MRSA strain); experiment: MIC, broth dilution method, dark condition; type: cell-based; conditions: Table 1 entry 10, 24 h
[7] = system: Staphylococcus aureus subsp. Aureus 33592 ™ (a methicillin and gentamicin resistant strain); experiment: MIC, broth dilution method, dark condition; type: cell-based; conditions: Table 1 entry 11, 24 h
[8] = system: Staphylococcus aureus BR 5 (A methicillin and vancomycin resistant strain); experiment: MIC, broth dilution method, dark condition; type: cell-based; conditions: Table 1 entry 13, 24 h
[9] = system: Staphylococcus aureus strain AIS 1000505 (VRS10, a vancomycin-resistant strain); experiment: MIC, broth dilution method, dark condition; type: cell-based; conditions: Table 1 entry 14, 24 h
[10] = system: Staphylococcus epidermidis 35984 ™; experiment: MIC, broth dilution method, dark condition; type: cell-based
[11] = system: Enterococcus faecalis 19433 ™; experiment: MIC, broth dilution method, dark condition; type: cell-based; conditions: Table 1 entry 17, 24 h
[12] = system: Enterococcus faecium 349 ™; experiment: MIC, broth dilution method, dark condition; type: cell-based; conditions: Table 1 entry 18, 24 h
[13] = system: Enterococcus faecium BAA-2320; experiment: MIC, broth dilution method, dark condition; type: cell-based; conditions: BAA2320, Table 1 entry 19, 24 h
[14] = system: Enterococcus faecium patient #3-1, NR-31912 (a vancomycin-resistant strain); experiment: MIC, broth dilution method, dark condition; type: cell-based; conditions: Table 1 entry 21, 24 h
[15] = system: Enterococcus faecium UAA714 (a vancomycin-resistant strain); experiment: MIC, broth dilution method, dark condition; type: cell-based; conditions: Table 1 entry 22, 24 h
[16] = system: Streptococcus pneumoniae 6301 ™; experiment: MIC, broth dilution method, dark condition; type: cell-based
[17] = system: Mycobacterium avium subsp. Avium 2285; experiment: MIC, broth dilution method, dark condition; type: cell-based; conditions: Table 1 entry 26, 24 h
[18] = system: Mycobacterium kansasii 824 ™; experiment: MIC, broth dilution method, dark condition; type: cell-based; conditions: Table 1 entry 27, 24 h
[19] = system: Mycobacteroides abscessus 19977 ™; experiment: MIC, broth dilution method, dark condition; type: cell-based; conditions: Table 1 entry 29, 24 h
[20] = system: Saccharomyces cerevisiae BY4743; experiment: MIC, broth dilution method, dark condition; type: cell-based; conditions: Table 1 entry 30, 24 h
Bacillus cereus 13061 ™ = experiment: MIC, agar dilution method; type: cell-based; conditions: Table 2 entry 2, dark
Excerpt: (§1) The MIC values of RB determined by the agar dilution method differed from those determined by the broth dilution method (Table 1). Selected examples of the MIC values determined by the agar dilution method are summarized in Table 2 shown by renumbering the assayed microbes.

[21] = system: Bacillus subtilis ATCC6051; experiment: MIC, agar dilution method; type: cell-based; conditions: Table 2 entry 1, dark
Excerpt: as §1

[22] = system: Mycobacterium smegmatis 607 ™; experiment: MIC, agar dilution method; type: cell-based; conditions: Mycolicibacterium smegmatis, Table 2 entry 5, dark
Excerpt: as §1

[23] = system: Staphylococcus aureus 6538 ™; experiment: MIC, agar dilution method; type: cell-based; conditions: Table 2 entry 3, dark
Excerpt: as §1

[24] = system: Staphylococcus aureus subsp. Aureus BAA-44 ™ (a MRSA strain); experiment: MIC, agar dilution method; type: cell-based; conditions: Table 2 fourth entry (printed 1), dark
Excerpt: as §1

[25] = system: 7 methicillin-resistant S. aureus (MRSA) with different SCCmec types; experiment: Bactericidal activity under fluorescent or LED light, MRSA panel; type: cell-based, Staphylococcus aureus; conditions: under the fluorescent or LED light; Table 1 entries 5-11
Protocol: (§2) Minimum inhibitory concentrations (MICs) were determined by broth dilution microplate alamar blue assay or by OD measurement. All compounds were stored in DMSO or saline (1 mg/100 μL concentration). This concentration was used as the stock solution for all MIC studies. Each compound from stock solution was placed in the first well of a sterile 96 well plate and a serial dilution was conducted with the culturing broth (total volume of 10 μL). The bacterial suspension at log phase (190 μL) was added to each well (total volume of 200 μL), and was incubated for 24 h at 37° C. 20 μL of resazurin (0.02%) was added to each well and incubated for 4 h, (National Committee for Clinical Laboratory Standards (NCCLS) method (pink=growth, blue=no visible growth)). The OD measurements were performed for all experiments prior to performing colorimetric assays. The absorbance of each well was also measured at 570 and 600 nm via UV-Vis.

[26] = system: biofilms of drug-resistant S. aureus 71080 (VRS8); experiment: Biofilm eradication assay; type: cell-based, Staphylococcus aureus; conditions: fluorescent and dark conditions; concentration-dependent
Excerpt: Linezolid is not an effective drug in eradicating biofilms of Gram-positive bacteria, but has a beneficial effect in prevention of biofilm formations [Reiter et al., J. Med. Microbiol. 62:394-399 (2013)], and was used as a control.
We confirm that RB is an excellent agent to eradicate biofilms of Gram-positive bacteria, including drug-resistant strains. […] These studies indicate that RB has the potential antibacterial agent to kill drug-resistant bacteria in any growth phases.

[27] = system: progressive infectious keratitis; conditions: cited from earlier work
[28] = system: multidrug-resistant Fusarium keratoplasticum; conditions: RB about 0.1%, photoactivated by 15 minutes irradiation at 375 nm or 518 nm; cited from earlier work
[29] = system: Fusarium keratoplasticum-infected cornea; conditions: one patient, cited from earlier work
[30] = system: vancomycin-resistant S. aureus strains; conditions: under either lighting condition (fluorescent or LED); entries 12-16
Protocol: as §2

A. fumigattus = conditions: three days of incubation, cited from earlier work

Question: With `O=C(O)c1c(Cl)c(Cl)c(Cl)c(Cl)c1-c1c2cc(I)c(=O)c(I)c-2oc2c(I)c(O)c(I)cc12` [RB, 4,5,6,7-tetrachloro-2′,4′,5′,7′-tetraiodofluorescein] as the compound, how does the MIC [1] read?
Answer: 50 µg/mL (≈ 51.4 µM)

Question: What about the MIC [2] of the same compound?
Answer: 50 µg/mL (≈ 51.4 µM)

Question: What about the MIC [3] of the same compound?
Answer: 50 µg/mL (≈ 51.4 µM)

Question: What about the MIC [4] of the same compound?
Answer: 50 µg/mL (≈ 51.4 µM)

Question: And the MIC [5]?
Answer: 25 µg/mL (≈ 25.7 µM)

Question: What about the MIC [6] of the same compound?
Answer: 25 µg/mL (≈ 25.7 µM)

Question: What about the MIC [7] of the same compound?
Answer: 50 µg/mL (≈ 51.4 µM)

Question: What about the MIC [8] of the same compound?
Answer: 25 µg/mL (≈ 25.7 µM)

Question: And the MIC [9]?
Answer: 25 µg/mL (≈ 25.7 µM)

Question: And the MIC ([10]; Staphylococcus epidermidis, Table 1 entry 16, broth dilution, dark, 24 h)?
Answer: 25 µg/mL (≈ 25.7 µM)

Question: What about the “killing by RB” value ([10]; aerobic condition, entry 16) of the same compound?
Answer: effectively killed

Question: And the MIC [11]?
Answer: 25 µg/mL (≈ 25.7 µM)

Question: What about the MIC [12] of the same compound?
Answer: 50 µg/mL (≈ 51.4 µM)

Question: What about the MIC [13] of the same compound?
Answer: 25 µg/mL (≈ 25.7 µM)

Question: What about the MIC [14] of the same compound?
Answer: 50 µg/mL (≈ 51.4 µM)

Question: What about the MIC [15] of the same compound?
Answer: 50 µg/mL (≈ 51.4 µM)

Question: What about the MIC ([16]; Streptococcus pneumoniae, Table 1 entry 24, broth dilution, dark, 24 h) of the same compound?
Answer: > 100 µg/mL

Question: What about the “susceptibility to RB” value ([16]; entry 24) of the same compound?
Answer: showed resistance

Question: What about the MIC [17] of the same compound?
Answer: 50 µg/mL (≈ 51.4 µM)

Question: What about the MIC [18] of the same compound?
Answer: 50 µg/mL (≈ 51.4 µM)

Question: What about the MIC [19] of the same compound?
Answer: 50 µg/mL (≈ 51.4 µM)

Question: What about the MIC [20] of the same compound?
Answer: 125 µg/mL (≈ 128 µM)

Question: And the MIC (Bacillus cereus 13061 ™)?
Answer: 125 µg/mL (≈ 128 µM)

Question: What about the MIC [21] of the same compound?
Answer: 125 µg/mL (≈ 128 µM)

Question: And the MIC [22]?
Answer: 50 µg/mL (≈ 51.4 µM)

Question: And the MIC [23]?
Answer: 25 µg/mL (≈ 25.7 µM)

Question: And the MIC [24]?
Answer: 50 µg/mL (≈ 51.4 µM)

Question: What about the “concentration at which all MRSA strains were killed” value [25] of the same compound?
Answer: 0.78 to 3.1 µg/mL

Question: What about the “viable cells in biofilm” value [26] of the same compound?
Answer: significantly reduced

Question: What about the “Successful RB-PDAT (avoidance of therapeutic keratoplasty), share of cases” value ([27]; 0.1 or 0.2% RB on de-epithelized corneas 30 minutes, then 5.4 J/cm^2 green LED light 15 minutes, 18 patients unresponsive to standard therapy) of the same compound?
Answer: 72%

Question: And the “average time to clinical resolution after RB-PDAT” value ([27]; 0.1 or 0.2% RB, 5.4 J/cm^2 green LED light)?
Answer: 46.9 ± 26.4 days

Question: What about the “fungal growth inhibition in vitro” value [28] of the same compound?
Answer: could inhibit the fungal growth

Question: And the “time to resolution of pain post irradiation” value ([29]; RB dripped on debrided cornea 30 minutes, 518 nm light 0.9 J/cm^2)?
Answer: 36 h

Question: And the “decrease of infiltrate size in all directions” value ([29]; four days after treatment)?
Answer: approximately 1 mm

Question: And the “concentration at which all vancomycin-resistant strains were killed” value [30]?
Answer: below 1.0 μg/mL

Question: And the “Day 3 Growth Inhibition Percentage, RB + 518 nm Irradiation” value (A. fumigattus; 518 nm, 5.4 J/cm^2)?
Answer: 79.8 ± 9 Percentage

Question: And the “Day 3 Growth Inhibition Percentage, RB Only” value (A. fumigattus; dark, no irradiation)?
Answer: 6.6 ± 0. Percentage
